Laboratory results from patent US20200276107A1, “Treatment of herpes simplex symptoms on skin and mucous membrane of mammals” (priority 2017, published 2020).

Test system: herpes simplex labialis
Test: In vivo topical treatment, test group A (four individuals)
Parameters: species or system human
Settings: common topical medication 5 to 6 times per day
Protocol: Antiviral performance of the composition of the present invention was evaluated in vivo. The test group A consisted of four individuals suffering from herpes simplex labialis. […] As infections were untreated, the individuals were normally healing in between 7 to 10 days. The time from initiation of the symptoms to when the patients experienced relief of pain from the affected area was between 5 to 7 days. […] The time from initiation of the symptoms to time when the patients experienced relief of pain from the affected area was 3 to 5 days.
The herpes infections of test group were treated topically with a composition containing the polyamine polymer silver complex of the present invention with the following results. The composition was applied topically to the affected areas to cover the cold sores with a coating of the composition two times a day. The time from initiation of the cold sores and treatment with the composition to complete healing averaged between about 2 to 3 days. The time from the initiation of the treatment to when the patients experienced relief of pain from the affected area was about 10 to 15 minutes after the first application.

Compound: Nc1nc2c(ncn2COCCO)c(=O)[nH]1 [acyclovir]
- time from initiation of the symptoms to relief of pain from the affected area: 3 to 5 days
- time to healing: 5 to 7 days
